Reference: patent US20260365670A1, “EGFR INHIBITORS AND USES THEREOF” (DIZAL (JIANGSU) PHARMACEUTICAL CO., LTD., priority 2022, published 2026)
Where two headings read alike, the source gives them in different places.

How the values were obtained:
[1] = target: T1, EGFR L858R (Homo sapiens, UniProt P00533, L858R); test: Inhibition of EGFR L858R biochemical enzymatic activity (HTRF); conditions: 1 mM ATP, 1 h, room temperature, read-out: IC50 (nM) @L858R
T1 construct: purchased Carna Bio
How it was run: (§1)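 Compounds at varying concentrations were tested against each EGFR form using 1 mM ATP and 1 μM TK Substrate-biotin. Reactions ran 1 h at room temperature in Mg2+/Mn2+ buffer with CHAPS, DTT and 0.5% DMSO. Time-resolved fluorescence gave IC50 by four-parameter fit.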

[2] = target: T2, EGFR Exon19Del (Homo sapiens, UniProt P00533, DEL746-750); test: Inhibition of EGFR Exon19Del biochemical enzymatic activity (HTRF); conditions: EGFR Del19, 1 mM ATP, 1 h, room temperature, read-out: IC50 @Del19
T2 construct: purchased Carna Bio
How it was run: as §1

[3] = target: T3, EGFR wild type (Homo sapiens, UniProt P00533); test: Inhibition of EGFR wild type biochemical enzymatic activity (HTRF); conditions: EGFR WT, 1 mM ATP, 1 h, room temperature, read-out: IC50 (nM) @WT
T3 construct: purchased Carna Bio
How it was run: as §1

[4] = test system: PC-9; test: Cell proliferation assay, PC-9 cells (CellTiter-Glo, 72 hours); type: cell-based; conditions: PC9 cells, CellTiter-Glo, read-out: PC9 GI50
How it was run: (§2)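 Growth over 72 h was quantified by CellTiter-Glo luminescence, normalised as (G3 − G0)/(DMSO G3 − G0), for PC-9 cells seeded at 500/well and EGFR-mutant Ba/F3 cells at 5000/well in RPMI1640. Compound concentration series added after overnight incubation; GI50 obtained from best-fit curves.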

[5] = test system: Ba/F3 cells expressing EGFR mutations; test: Cell proliferation assay, Ba/F3 cells expressing EGFR mutations (CellTiter-Glo, 72 hours); type: cell-based; conditions: CellTiter-Glo
How it was run: as §2

[6] = target: T4, EGFR Exon19Del/T790M (Homo sapiens, UniProt P00533, DEL746-750/T790M); test: Inhibition of EGFR Exon19Del/T790M biochemical enzymatic activity (HTRF); conditions: EGFR Del19-T790M, 1 mM ATP, 1 h, room temperature, read-out: IC50 (nM) @Del19-T790M
T4 construct: purchased Carna Bio
How it was run: as §1

[7] = target: T5, EGFR[T790M/C797S/L858R] (Homo sapiens, UniProt P00533, C797S/L858R/T790M); test: Inhibition of EGFR[T790M/C797S/L858R] biochemical enzymatic activity (HTRF); conditions: EGFR T790M-C797S-L858R, 1 mM ATP, 1 h, room temperature, read-out: IC50 (nM) @T790M- C797S - L858R
T5 construct: purchased Carna Bio
How it was run: as §1

[8] = test system: A-431; test: Cell proliferation GI50, A-431 cells (Table 6); type: cell-based
[9] = target: T6, EGFR L858R/T790M (Homo sapiens, UniProt P00533, L858R/T790M); test: Inhibition of EGFR L858R/T790M biochemical enzymatic activity (HTRF); conditions: EGFR L858R-T790M, 1 mM ATP, 1 h, room temperature, read-out: IC50 (nM) @L858R-T790M
T6 construct: purchased Carna Bio
How it was run: as §1

[10] = target: T7, EGFR (C797S L858R) (Homo sapiens, UniProt P00533, C797S/L858R); test: Inhibition of EGFR (C797S L858R) biochemical enzymatic activity (HTRF); conditions: EGFR L858-C797S, 1 mM ATP, 1 h, room temperature, read-out: IC50 (nM) @L858-C797S
T7 construct: purchased signalchem
How it was run: as §1

[11] = target: T8, EGFR[T790M/C797S/d746-750] (Homo sapiens, UniProt P00533, C797S/DEL746-750/T790M); test: Inhibition of EGFR[T790M/C797S/d746-750] biochemical enzymatic activity (HTRF); conditions: EGFR T790M-C797S-Del19, 1 mM ATP, 1 h, room temperature, read-out: IC50 (nM) @T790M - C797S - Del19
T8 construct: purchased Carna Bio
How it was run: as §1

[12] = target: T9, EGFR (d746-750 C797S) (Homo sapiens, UniProt P00533, C797S/DEL746-750); test: Inhibition of EGFR (d746-750 C797S) biochemical enzymatic activity (HTRF); conditions: EGFR Del19-C797S, 1 mM ATP, 1 h, room temperature, read-out: IC50 (nM) @Del19-C797S
T9 construct: purchased signalchem
How it was run: as §1

[13] = BaF3 cells, EGFR DEL19-C797S, read-out: DEL19-C797S/BaF3 GI50
[14] = BaF3 cells, EGFR DEL19-T790-C797S, read-out: DEL19-T790-C797S/BaF3 GI50
[15] = BaF3 cells, EGFR L858R, read-out: L858R/BaF3 GI50
[16] = BaF3 cells, EGFR L858R-C797S, read-out: L858R-C797S/BaF3 GI50
[17] = BaF3 cells, EGFR L858R-T790-C797S, read-out: L858R-T790-C797S/BaF3 GI50
[18] = BaF3 cells, EGFR L858R-T790M, read-out: L858R-T790M/BaF3 GI50
[19] = EGFR DEL19-T790M, read-out: DEL19-T790M GI50
[20] = Homo sapiens, A-431, A-431 cells
[21] = Mus musculus, BaF3, 72 h, BaF3 cells, EGFR DEL19-C797S, read-out: DEL19-C797S/BaF3 GI50
[22] = Mus musculus, BaF3, 72 h, BaF3 cells, EGFR DEL19-T790-C797S, read-out: DEL19-T790-C797S/BaF3 GI50
[23] = Mus musculus, BaF3, 72 h, BaF3 cells, EGFR L858R, read-out: L858R/BaF3 GI50
[24] = Mus musculus, BaF3, 72 h, BaF3 cells, EGFR L858R-C797S, read-out: L858R-C797S/BaF3 GI50
[25] = Mus musculus, BaF3, 72 h, BaF3 cells, EGFR L858R-T790-C797S, read-out: L858R-T790-C797S/BaF3 GI50
[26] = Mus musculus, BaF3, 72 h, BaF3 cells, EGFR L858R-T790M, read-out: L858R-T790M/BaF3 GI50
[27] = Mus musculus, BaF3, 72 h, EGFR DEL19-T790M, read-out: DEL19-T790M GI50

T7 sequence (P00533 25-1210 C797S/L858R): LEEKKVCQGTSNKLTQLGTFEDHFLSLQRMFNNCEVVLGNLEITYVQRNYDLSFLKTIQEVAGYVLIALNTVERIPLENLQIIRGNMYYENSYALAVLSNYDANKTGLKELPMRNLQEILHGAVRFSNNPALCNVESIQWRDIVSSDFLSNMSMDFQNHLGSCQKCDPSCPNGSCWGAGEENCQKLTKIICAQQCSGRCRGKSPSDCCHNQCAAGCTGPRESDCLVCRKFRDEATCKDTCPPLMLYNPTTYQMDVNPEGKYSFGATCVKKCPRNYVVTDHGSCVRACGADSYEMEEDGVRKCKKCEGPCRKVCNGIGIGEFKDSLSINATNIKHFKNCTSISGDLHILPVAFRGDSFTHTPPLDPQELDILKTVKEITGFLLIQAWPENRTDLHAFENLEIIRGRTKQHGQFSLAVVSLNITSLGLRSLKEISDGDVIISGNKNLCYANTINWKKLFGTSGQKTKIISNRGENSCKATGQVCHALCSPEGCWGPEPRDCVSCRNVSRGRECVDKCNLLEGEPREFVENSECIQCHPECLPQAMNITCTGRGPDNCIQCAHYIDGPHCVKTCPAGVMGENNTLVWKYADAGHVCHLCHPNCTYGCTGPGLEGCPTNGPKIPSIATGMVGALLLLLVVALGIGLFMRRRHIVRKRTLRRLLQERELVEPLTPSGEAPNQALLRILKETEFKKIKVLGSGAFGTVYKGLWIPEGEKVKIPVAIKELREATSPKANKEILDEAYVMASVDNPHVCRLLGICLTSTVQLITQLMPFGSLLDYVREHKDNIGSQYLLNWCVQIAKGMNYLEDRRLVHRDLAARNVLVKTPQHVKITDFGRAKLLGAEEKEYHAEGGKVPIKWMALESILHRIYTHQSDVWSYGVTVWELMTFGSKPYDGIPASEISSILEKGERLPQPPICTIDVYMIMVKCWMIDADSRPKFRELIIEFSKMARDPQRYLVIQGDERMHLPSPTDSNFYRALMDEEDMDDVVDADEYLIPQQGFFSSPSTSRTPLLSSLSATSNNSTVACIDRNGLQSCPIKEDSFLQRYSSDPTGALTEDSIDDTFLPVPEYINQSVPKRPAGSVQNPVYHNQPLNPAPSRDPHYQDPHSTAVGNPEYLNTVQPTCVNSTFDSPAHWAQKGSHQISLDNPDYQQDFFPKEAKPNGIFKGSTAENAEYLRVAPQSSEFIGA
T1 sequence (P00533 25-1210 L858R): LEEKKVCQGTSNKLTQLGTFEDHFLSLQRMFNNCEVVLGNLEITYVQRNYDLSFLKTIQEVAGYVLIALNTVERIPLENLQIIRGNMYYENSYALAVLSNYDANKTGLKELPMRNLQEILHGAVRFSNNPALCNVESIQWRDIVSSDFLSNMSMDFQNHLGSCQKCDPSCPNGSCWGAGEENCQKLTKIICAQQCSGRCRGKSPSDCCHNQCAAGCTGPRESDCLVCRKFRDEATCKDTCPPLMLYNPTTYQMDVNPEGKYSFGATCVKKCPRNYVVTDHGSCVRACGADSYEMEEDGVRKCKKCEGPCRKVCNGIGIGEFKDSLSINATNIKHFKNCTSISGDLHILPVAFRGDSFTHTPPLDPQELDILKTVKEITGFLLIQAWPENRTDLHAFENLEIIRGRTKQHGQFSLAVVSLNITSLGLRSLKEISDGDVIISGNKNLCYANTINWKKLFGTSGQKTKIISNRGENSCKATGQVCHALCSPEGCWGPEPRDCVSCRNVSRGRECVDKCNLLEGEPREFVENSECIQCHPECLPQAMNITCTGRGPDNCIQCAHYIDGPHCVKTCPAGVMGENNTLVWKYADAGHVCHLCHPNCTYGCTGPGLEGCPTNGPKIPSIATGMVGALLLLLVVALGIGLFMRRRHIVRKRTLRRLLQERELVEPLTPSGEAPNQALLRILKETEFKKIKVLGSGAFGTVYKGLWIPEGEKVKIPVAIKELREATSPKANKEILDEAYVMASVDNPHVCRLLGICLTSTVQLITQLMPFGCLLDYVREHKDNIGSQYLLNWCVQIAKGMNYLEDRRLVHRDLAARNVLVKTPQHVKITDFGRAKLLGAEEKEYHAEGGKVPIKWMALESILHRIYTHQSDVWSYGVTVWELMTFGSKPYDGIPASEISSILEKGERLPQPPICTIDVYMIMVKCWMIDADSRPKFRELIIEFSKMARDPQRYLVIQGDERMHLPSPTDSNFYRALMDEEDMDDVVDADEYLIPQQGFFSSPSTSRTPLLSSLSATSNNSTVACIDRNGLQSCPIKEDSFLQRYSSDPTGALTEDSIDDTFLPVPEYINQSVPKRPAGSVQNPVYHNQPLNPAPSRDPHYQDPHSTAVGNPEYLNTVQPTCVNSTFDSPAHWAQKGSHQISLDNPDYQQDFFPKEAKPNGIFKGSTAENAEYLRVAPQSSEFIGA
T6 sequence (P00533 25-1210 T790M/L858R): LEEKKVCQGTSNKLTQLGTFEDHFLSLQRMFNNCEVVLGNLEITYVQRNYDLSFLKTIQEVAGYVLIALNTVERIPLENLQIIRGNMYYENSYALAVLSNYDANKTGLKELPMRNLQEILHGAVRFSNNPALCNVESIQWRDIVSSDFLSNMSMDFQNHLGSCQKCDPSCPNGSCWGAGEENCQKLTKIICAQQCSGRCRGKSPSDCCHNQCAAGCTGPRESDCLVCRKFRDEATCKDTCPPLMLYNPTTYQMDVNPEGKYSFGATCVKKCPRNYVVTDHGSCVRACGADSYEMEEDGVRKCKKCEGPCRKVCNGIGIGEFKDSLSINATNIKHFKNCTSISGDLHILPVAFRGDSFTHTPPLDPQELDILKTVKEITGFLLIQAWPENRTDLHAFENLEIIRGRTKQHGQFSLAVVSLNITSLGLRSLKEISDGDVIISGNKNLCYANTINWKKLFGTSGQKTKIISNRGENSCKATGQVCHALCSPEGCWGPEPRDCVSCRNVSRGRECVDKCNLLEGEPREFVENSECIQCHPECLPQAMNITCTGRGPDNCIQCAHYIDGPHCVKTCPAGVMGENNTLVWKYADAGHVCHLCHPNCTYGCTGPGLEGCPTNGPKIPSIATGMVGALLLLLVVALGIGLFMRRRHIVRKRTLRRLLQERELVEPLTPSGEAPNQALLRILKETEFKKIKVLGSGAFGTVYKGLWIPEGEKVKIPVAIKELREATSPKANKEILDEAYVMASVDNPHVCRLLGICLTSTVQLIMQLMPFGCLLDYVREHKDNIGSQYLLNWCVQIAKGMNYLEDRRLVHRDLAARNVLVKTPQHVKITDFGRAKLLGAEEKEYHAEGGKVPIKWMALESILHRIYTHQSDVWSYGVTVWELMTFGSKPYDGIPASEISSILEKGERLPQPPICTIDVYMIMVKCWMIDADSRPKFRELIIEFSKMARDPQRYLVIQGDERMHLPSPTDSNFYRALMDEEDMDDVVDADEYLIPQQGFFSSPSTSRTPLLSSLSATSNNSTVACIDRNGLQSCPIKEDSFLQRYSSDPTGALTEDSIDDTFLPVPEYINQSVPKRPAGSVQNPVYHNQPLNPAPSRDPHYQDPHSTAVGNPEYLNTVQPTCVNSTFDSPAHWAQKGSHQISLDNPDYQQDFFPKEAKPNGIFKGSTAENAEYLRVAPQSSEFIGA
T2 sequence (P00533 with tags, fused parts or gaps DEL746-750 limits assumed): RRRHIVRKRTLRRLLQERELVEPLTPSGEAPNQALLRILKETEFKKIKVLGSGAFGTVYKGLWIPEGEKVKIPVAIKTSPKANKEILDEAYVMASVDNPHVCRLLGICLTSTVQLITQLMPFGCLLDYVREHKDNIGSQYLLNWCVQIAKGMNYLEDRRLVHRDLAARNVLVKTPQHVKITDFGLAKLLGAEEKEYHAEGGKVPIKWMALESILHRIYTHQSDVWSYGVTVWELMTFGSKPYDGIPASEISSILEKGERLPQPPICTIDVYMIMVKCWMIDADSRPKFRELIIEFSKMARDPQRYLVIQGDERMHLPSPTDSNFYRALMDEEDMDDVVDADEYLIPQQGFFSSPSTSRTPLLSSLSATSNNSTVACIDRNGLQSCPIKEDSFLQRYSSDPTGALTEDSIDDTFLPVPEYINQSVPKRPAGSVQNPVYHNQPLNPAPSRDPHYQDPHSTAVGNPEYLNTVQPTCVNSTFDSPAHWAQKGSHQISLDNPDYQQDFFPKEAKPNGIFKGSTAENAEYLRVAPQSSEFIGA
T9 sequence (P00533 with tags, fused parts or gaps DEL746-750/C797S limits assumed): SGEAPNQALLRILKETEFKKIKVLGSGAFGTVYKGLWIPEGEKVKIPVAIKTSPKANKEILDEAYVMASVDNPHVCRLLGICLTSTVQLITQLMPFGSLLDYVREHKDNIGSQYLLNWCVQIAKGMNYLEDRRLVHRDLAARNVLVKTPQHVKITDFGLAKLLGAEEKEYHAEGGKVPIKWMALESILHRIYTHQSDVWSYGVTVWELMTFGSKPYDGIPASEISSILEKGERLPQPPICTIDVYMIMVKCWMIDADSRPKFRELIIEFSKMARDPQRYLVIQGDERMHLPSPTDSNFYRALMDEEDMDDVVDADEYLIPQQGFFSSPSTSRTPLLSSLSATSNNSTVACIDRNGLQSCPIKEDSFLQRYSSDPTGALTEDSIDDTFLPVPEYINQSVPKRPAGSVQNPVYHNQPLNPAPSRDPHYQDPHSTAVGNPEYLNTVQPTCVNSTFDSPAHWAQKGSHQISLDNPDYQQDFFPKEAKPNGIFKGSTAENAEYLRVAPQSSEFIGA

Compound: CN1CC2(CCN(c3ccc4nc5n(c4c3)C34CCC(CN(CCOc6c(cnn6C)-c6cc(cn(C)c6=O)C(=O)N5)C3)C4)C2)C1 (single isomer, unassigned) [Example A73B]
- IC50 [1]: 4 nM
- IC50 [2]: 1.3 nM
- IC50 [3]: 13 nM
- GI50 [4]: 7.3 nM
- GI50 [5, 13]: 0.54 nM
- GI50 [5, 14]: 1.9 nM
- GI50 [5, 15]: 1.8 nM
- GI50 [5, 16]: 3.5 nM
- GI50 [5, 17]: 1.9 nM
- GI50 [5, 18]: 8 nM
- GI50 [5, 19]: 1.5 nM
- IC50 [6]: 2.2 nM
- IC50 [7]: 1.9 nM
- GI50 [8, 20]: 1070 nM
- IC50 [9]: 1.9 nM
- IC50 [10]: 2.9 nM
- IC50 [11]: 2.1 nM
- IC50 [12]: 1.4 nM

Compound: C[C@@H]1CCCOc2c(cnn2C)-c2cc(cn(C)c2=O)C(=O)Nc2nc3ccc(N4CC5(CCN(C)CC5)C4)cc3n2C1 [Example A41]
- IC50 [1]: 10 nM
- IC50 [2]: 2.3 nM
- IC50 [3]: 74 nM
- GI50 ([4]; Homo sapiens, PC-9, 72 h): 2.9 nM
- GI50 [5, 21]: 0.33 nM
- GI50 [5, 22]: 1.1 nM
- GI50 [5, 23]: 0.47 nM
- GI50 [5, 24]: 1.4 nM
- GI50 [5, 25]: 0.57 nM
- GI50 [5, 26]: 2.9 nM
- GI50 [5, 27]: 1.4 nM
- IC50 [6]: 3.5 nM
- IC50 [7]: 3.2 nM
- GI50 [8, 20]: 314 nM
- IC50 [9]: 5.1 nM
- IC50 [10]: 5.3 nM
- IC50 [11]: 3.1 nM
- IC50 [12]: 1.7 nM

Compound: CN1CCC2CN(c3ccc4nc5n(c4c3)C34CCC(CN(CCOc6c(cnn6C)-c6cc(cn(C)c6=O)C(=O)N5)C3)C4)CC21 (single isomer, unassigned) [Example A79B]
- IC50 [1]: 27 nM
- IC50 [2]: 6.3 nM
- IC50 [3]: 126 nM
- GI50 [4]: 23 nM
- GI50 [5, 13]: 0.7 nM
- GI50 [5, 14]: 10 nM
- GI50 [5, 15]: 12 nM
- GI50 [5, 16]: 8.5 nM
- GI50 [5, 17]: 14 nM
- GI50 [5, 18]: 37 nM
- GI50 [5, 19]: 13 nM
- IC50 [6]: 10 nM
- IC50 [7]: 8.3 nM
- GI50 [8, 20]: 1280 nM
- IC50 [9]: 12 nM
- IC50 [10]: 13 nM
- IC50 [11]: 11 nM
- IC50 [12]: 5 nM

Compound: CCn1cc2cc(c1=O)-c1cnn(C)c1OCCC[C@@H](C)Cn1c(nc3ccc(N4CCN(C)CC4)cc31)NC2=O [Example A14, (11R)-26-Ethyl-5,11-dimethyl-16-(4-methylpiperazin-1-yl)-7-oxa-4,5,13,20,22,26-hexaazapentacyclo[22.3.1.0^{2,6}.0^{13,21}.0^{14,19}]octacosa-1(28),2(6),3,14,16,18,20,24-octaene-23,27-dione]
- IC50 [1]: > 5000 nM
- IC50 [2]: 144 nM
- IC50 [3]: > 5000 nM
- GI50 ([4]; Homo sapiens, PC-9, 72 h): 152 nM
- GI50 [5, 21]: 57 nM
- GI50 [5, 22]: 356 nM
- GI50 [5, 23]: 305 nM
- GI50 [5, 24]: 188 nM
- GI50 [5, 25]: 459 nM
- GI50 [5, 26]: 866 nM
- GI50 [5, 27]: 462 nM
- IC50 [6]: 132 nM
- IC50 [7]: > 5000 nM
- GI50 [8, 20]: 2240 nM
- IC50 [9]: > 5000 nM
- IC50 [10]: > 5000 nM
- IC50 [11]: 59 nM
- IC50 [12]: 63 nM

Compound: CCn1ncc2c1OCCC[C@@H](C)Cn1c(nc3ccc(N4CCN(C)CC4)cc31)NC(=O)c1cc-2c(=O)n(C)c1 [Example A21, (11R)-5-ethyl-11,26-dimethyl-16-(4-methylpiperazin-1-yl)-7-oxa-4,5,13,20,22,26-hexaazapentacyclo[22.3.1.0^{2,6}.0^{13,21}.0^{14,19}]octacosa-1(28),2(6),3,14,16,18,20,24-octaene-23,27-dione]
- IC50 [1]: 37 nM
- IC50 [2]: 4.6 nM
- IC50 [3]: 446 nM
- GI50 ([4]; Homo sapiens, PC-9, 72 h): 24 nM
- GI50 [5, 21]: 2.1 nM
- GI50 [5, 22]: 22 nM
- GI50 [5, 23]: 19 nM
- GI50 [5, 24]: 26 nM
- GI50 [5, 25]: 7.2 nM
- GI50 [5, 26]: 6.7 nM
- GI50 [5, 27]: 24 nM
- IC50 [6]: 7.3 nM
- IC50 [7]: 7.2 nM
- GI50 [8, 20]: 1110 nM
- IC50 [9]: 18 nM
- IC50 [10]: 15 nM
- IC50 [11]: 7.1 nM
- IC50 [12]: 3.7 nM

Compound: CN(C)C1CCN(c2ccc3nc4n(c3c2)C23CCC(CN(CCOc5c(cnn5C)-c5cc(cn(C)c5=O)C(=O)N4)C2)C3)CC1 (single isomer, unassigned) [Example A64B]
- IC50 [1]: 2 nM
- IC50 [2]: 1 nM
- IC50 [3]: 3.6 nM
- GI50 [4]: 3.3 nM
- GI50 [5, 13]: 0.71 nM
- GI50 [5, 14]: 0.92 nM
- GI50 [5, 15]: 0.91 nM
- GI50 [5, 16]: 1.7 nM
- GI50 [5, 17]: 0.79 nM
- GI50 [5, 18]: 4.9 nM
- GI50 [5, 19]: 1.3 nM
- IC50 [6]: 1.8 nM
- IC50 [7]: 1.9 nM
- GI50 ([8]; A-431 cells): 973 nM
- IC50 [9]: 2 nM
- IC50 [10]: 2 nM
- IC50 [11]: 2 nM
- IC50 [12]: 0.95 nM
